Seven compounds from patent US11198694B2, “HDAC6 inhibitors, with improved solubility and their uses” (UNIVERSITÄT REGENSBURG, priority 2017, dated 2021) can be followed below.

Some results are limits rather than exact numbers.

One data set addresses T1, human HDAC2 (Homo sapiens, UniProt Q92769).
T1 construct: purchased Reaction Biology Corporation HDAC2
In words: Fluorescence HDAC enzyme inhibition assay (Reaction Biology Corporation). It counts as biochemical. The procedure:
(§1) The IC50 values for the various inhibitors against the isoenzymes of HDAC were measured by Reaction Biology Corporation (Malvern, Pa., USA) (Buffer, Kalin et al. 2010): For the enzyme inhibition assay, human recombinant protein material was used (human HDAC2 (CAT #: HDAC2), human HDAC6 (CAT #: HDAC6) or human HDAC8 (CAT #: HDAC8)). A 10-point dose response curve was prepared using a 3-fold dilution series (1:3), started at a concentration of 1 μM in DMSO for the synthesized drugs and 10 μM in DMSO for the reference substance Trichostatin A231 (TSA, for HDAC 2, 6 and 8). Reaction time was 90 minutes at 37° C. in a volume of 50 μL in a 96 well plate. Reaction buffer: 50 mM Tris-HCl, pH=8.0, 137 mM NaCl, 2.7 mM KCl, and 1 mM MgCl2 freshly added: 1 mg/ml bovine serum albumin. The fluorescence was measured using a fluoroscope Ascent™ FL fluorometer. The percent enzyme activity was calculated relative to the DMSO control. IC50 values were calculated using GraphPad Prism (GraphPad Prism 4.0 Software, San Diego, USA) based on a sigmoidal dose-response equation.
(§2) HDAC enzyme inhibition assays were conducted by Reaction Biology Corporation (Malvern, Pa., USA) using a ten point dose response curve with half-log serial dilutions, fluorogenic peptides at 50 μM as enzymatic substrates. Substrate for HDAC 2 and 6: fluorogenic peptide from p53 residues 379-382 (RHKK(Ac)AMC). Substrate for HDAC-8: fluorogenic peptide from p53 residues 379-382 (RHK(Ac)K(Ac)AMC).

The next data set has as its target T2, human HDAC6 (Homo sapiens, UniProt Q9UBN7).
T2 construct: purchased Reaction Biology Corporation HDAC6
T2 sequence (Q9UBN7 1-1215): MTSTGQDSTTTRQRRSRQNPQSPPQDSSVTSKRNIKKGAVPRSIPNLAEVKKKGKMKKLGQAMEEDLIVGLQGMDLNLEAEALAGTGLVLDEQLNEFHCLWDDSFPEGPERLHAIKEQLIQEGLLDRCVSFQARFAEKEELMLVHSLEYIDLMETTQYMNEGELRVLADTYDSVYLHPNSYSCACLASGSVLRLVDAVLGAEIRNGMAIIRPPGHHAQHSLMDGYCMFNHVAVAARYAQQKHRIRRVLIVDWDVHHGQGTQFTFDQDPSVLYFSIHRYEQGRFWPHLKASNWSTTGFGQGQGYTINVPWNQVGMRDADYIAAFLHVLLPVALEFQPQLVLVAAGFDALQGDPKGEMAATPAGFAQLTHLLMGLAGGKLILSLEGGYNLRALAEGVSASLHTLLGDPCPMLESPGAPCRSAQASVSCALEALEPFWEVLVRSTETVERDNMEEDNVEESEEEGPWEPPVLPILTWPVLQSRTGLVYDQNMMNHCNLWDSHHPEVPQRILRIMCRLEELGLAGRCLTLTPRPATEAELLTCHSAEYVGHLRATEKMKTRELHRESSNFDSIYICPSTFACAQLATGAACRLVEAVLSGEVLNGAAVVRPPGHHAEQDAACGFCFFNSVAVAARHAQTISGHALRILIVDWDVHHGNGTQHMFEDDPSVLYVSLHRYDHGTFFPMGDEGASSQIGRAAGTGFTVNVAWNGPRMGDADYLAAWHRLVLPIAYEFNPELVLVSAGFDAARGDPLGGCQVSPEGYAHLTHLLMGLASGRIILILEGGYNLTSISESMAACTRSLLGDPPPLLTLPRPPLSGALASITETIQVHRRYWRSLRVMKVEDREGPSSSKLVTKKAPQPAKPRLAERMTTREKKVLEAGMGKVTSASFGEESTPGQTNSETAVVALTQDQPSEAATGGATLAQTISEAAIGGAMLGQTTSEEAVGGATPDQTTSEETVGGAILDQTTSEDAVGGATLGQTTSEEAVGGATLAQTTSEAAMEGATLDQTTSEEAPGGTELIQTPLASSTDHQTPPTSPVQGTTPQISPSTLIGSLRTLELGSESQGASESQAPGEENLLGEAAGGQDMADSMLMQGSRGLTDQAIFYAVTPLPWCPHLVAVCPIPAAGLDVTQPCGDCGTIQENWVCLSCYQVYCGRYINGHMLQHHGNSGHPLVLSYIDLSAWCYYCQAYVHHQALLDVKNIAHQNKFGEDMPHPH
The description is as above. It counts as biochemical. The procedure: as §1, §2

Another data set deals with T3, human HDAC8 (Homo sapiens, UniProt Q9BY41).
T3 construct: purchased Reaction Biology Corporation HDAC8
T3 sequence (Q9BY41 1-377): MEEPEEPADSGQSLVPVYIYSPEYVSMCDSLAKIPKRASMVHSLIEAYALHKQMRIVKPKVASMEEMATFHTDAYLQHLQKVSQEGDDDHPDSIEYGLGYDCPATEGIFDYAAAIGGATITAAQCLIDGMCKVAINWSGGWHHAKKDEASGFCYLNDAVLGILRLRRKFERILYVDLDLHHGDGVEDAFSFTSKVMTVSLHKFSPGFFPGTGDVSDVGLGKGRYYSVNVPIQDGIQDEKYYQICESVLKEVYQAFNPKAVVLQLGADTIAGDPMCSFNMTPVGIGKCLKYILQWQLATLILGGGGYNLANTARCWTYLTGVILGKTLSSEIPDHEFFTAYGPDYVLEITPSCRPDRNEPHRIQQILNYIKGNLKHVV
Described as above. Format: biochemical. As to the method: as §1, §2

The nature of the next data set: Solubility in H2O. It counts as physicochemical. The note with it: water.

T1 sequence (Q92769 whole entry): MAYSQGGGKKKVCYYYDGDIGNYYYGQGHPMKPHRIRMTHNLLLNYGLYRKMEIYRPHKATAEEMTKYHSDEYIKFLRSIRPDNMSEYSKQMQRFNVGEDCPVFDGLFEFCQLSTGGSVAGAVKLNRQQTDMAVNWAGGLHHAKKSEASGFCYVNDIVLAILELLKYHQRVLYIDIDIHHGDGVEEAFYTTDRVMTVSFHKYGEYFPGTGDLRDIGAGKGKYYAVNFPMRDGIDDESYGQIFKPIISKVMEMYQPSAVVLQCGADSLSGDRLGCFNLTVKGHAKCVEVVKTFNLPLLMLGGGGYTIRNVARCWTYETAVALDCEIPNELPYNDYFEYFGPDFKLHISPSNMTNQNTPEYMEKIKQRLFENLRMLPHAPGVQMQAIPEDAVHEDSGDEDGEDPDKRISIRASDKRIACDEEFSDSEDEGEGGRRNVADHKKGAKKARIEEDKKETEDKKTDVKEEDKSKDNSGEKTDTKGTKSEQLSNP

The IC50 is the concentration that gives 50% inhibition. A higher IC50 goes with weaker potency in that assay. As for `CN1C(=O)[C@H]2CN(Cc3c2c2cc(OCCN4CCOCC4)ccc2n3Cc2ccc(C(=O)NO)cc2)C1=O` [(R)-21, N-Hydroxy-4-(((6R)-4-methyl-8-(2-morpholinoethoxy)-3,5-dioxo-3,4,5,6-tetrahydro-2,6-methano[1,3]diazocino[5,6-b]indole-11(1B)-yl)methyl)benzamide], the IC50 against human HDAC2 is 13000 nM; on human HDAC6, 7.05 nM; on human HDAC8, 1970 nM.

As for `CN1C(=O)[C@@H]2CN(Cc3c2c2cc(OCCN4CCOCC4)ccc2n3Cc2ccc(C(=O)NO)cc2)C1=O` [(S)-21, N-Hydroxy-4-(((6S)-4-methyl-8-(2-morpholinoethoxy)-3,5-dioxo-3,4,5,6-tetrahydro-2,6-methano[1,3]diazocino[5,6-b]indole-11(1H)-yl)methyl)benzamide], the IC50 was 1800 nM on human HDAC2, 3.02 nM against human HDAC6 and 364 nM against human HDAC8.

As for `CN1CC(=O)N2CCc3c(c4ccccc4n3Cc3ccc(C(=O)NO)cc3)C2C1=O` (stereo not drawn) [Compound 31b, N-hydroxy-4-((2-methyl-1,4-dioxo-1,3,4,6,7,12c-hexahydropyrazino[1′,2′:1,2]pyrido[4,3-b]indol-8(2H)-yl)methyl)benzamide], the half-maximal inhibitory concentration (IC50) at human HDAC6 worked out at 16.4 ± 0.75 nM; on human HDAC8 it was 251 ± 32.5 nM.

As to `CN1C(=O)C2c3c(c4ccccc4n3Cc3ccc(C(=O)NO)cc3)CCN2C1=O` (stereo not drawn) [Compound 41, N-Hydroxy-4-((2-methyl-1,3-dioxo-2,3,5,6-tetrahydro-1H-imidazo[1′,5′:1,2]pyrido[3,4-b]indol-11(11bH)-yl)methyl)benzamide], the IC50 was 30.7 ± 5.8 nM against human HDAC6 and 83 ± 6 nM on human HDAC8.

In general, solubility refers to the dissolved amount per volume that the medium holds. Low values mean a poorly soluble substance, high ones a readily soluble substance. The compound `CN1C(=O)C2CN(Cc3c2c2ccccc2n3Cc2ccc(C(=O)NO)cc2)C1=O` (stereo not drawn) yielded a solubility in the data set “Solubility in H2O” of less than 1000 µg/mL.

In the case of `CN1C(=O)C2CN(Cc3c2c2cc(OCCN4CCOCC4)ccc2n3Cc2ccc(C(=O)NO)cc2)C1=O` (stereo not drawn) [Compound 21, 4-(2-((11-(4-(Hydroxycarbamoyl)benzyl)-4-methyl-3,5-dioxo-1,3,4,5,6,11-hexahydro-2,6-methano[1,3]diazocino[5,6-b]indol-8-yl)oxy)ethyl)morpholin-4-ium chloride], the half-inhibitory concentration (IC50) on human HDAC6 is 2.41 ± 0.76 nM; against human HDAC8, 121 ± 10 nM.

As usually defined, the melting point is the temperature, or range, at which the solid turns liquid. Take `CN1C(=O)C2c3c(n(Cc4ccc(C(=O)NO)cc4)c4ccccc34)CCN2C1=O` (stereo not drawn) [Compound 31a, N-Hydroxy-4-((2-methyl-1,3-dioxo-2,3,5,6-tetrahydro-1H-imidazo[1′,5′:1,2]pyrido[4,3-b]indol-7(11cH)-yl)methyl)benzamide]: the melting point was in the range of 248.1 to 251.7 °C. This compound also showed an IC50 at human HDAC6 of 8.99 ± 1.11 nM.
